Measured values reported in ChEMBL document CHEMBL3525954, “Evaluation of hepatic disposition of paroxetine using sandwich-cultured rat and human hepatocytes” (Drug Metab Dispos, 2013).

Assays:
[1] = Drug metabolism in 4 days of sandwich-cultured Sprague-Dawley rat hepatocytes assessed as (2S,3R,4S,5S,6R)-2-(4-(((4R)-4-(4-fluorophenyl)piperidin-3-yl)methoxy)-2-methoxyphenoxy)-6-(hydroxymethyl)tetrahydro-2H-pyran-3,4,5-triol level at 1 uM by radio-chromatogram analysis; format: ADME, cell-based, Hepatocyte; conditions: 96 h, TDE = time-dependent effect
[2] = Drug metabolism in 4 days of sandwich-cultured Sprague-Dawley rat hepatocytes assessed as 4-(((4R)-4-(4-fluorophenyl)piperidin-3-yl)methoxy)-2-methoxyphenyl hydrogen sulfate level at 1 uM by radio-chromatogram analysis; format: ADME, cell-based, Hepatocyte; conditions: 96 h, TDE = time-dependent effect
[3] = Drug metabolism in Sprague-Dawley rat hepatocytes assessed as parent compound level at 1 uM after 3 hrs by radio-chromatogram analysis; format: ADME, cell-based, Hepatocyte; conditions: read-out: Drug metabolism
[4] = Drug metabolism in Sprague-Dawley rat hepatocytes assessed as 4-(((4R)-4-(4-fluorophenyl)piperidin-3-yl)methoxy)-2-methoxyphenyl hydrogen sulfate level at 1 uM by radio-chromatogram analysis; format: ADME, cell-based, Hepatocyte; conditions: TDE = time-dependent effect
[5] = Drug metabolism in human hepatocytes assessed as parent compound level at 1 uM after 3 hrs by radio-chromatogram analysis; format: ADME, cell-based, Hepatocyte; conditions: read-out: Drug metabolism
[6] = Drug metabolism in Sprague-Dawley rat hepatocytes assessed as (2S,3R,4S,5S,6R)-2-(4-(((4R)-4-(4-fluorophenyl)piperidin-3-yl)methoxy)-2-methoxyphenoxy)-6-(hydroxymethyl)tetrahydro-2H-pyran-3,4,5-triol level at 1 uM by radio-chromatogram analysis; format: ADME, cell-based, Hepatocyte; conditions: TDE = time-dependent effect
[7] = Drug metabolism in Sprague-Dawley rat hepatocytes assessed as parent compound level at 1 uM by radio-chromatogram analysis; format: ADME, cell-based, Hepatocyte; conditions: TDE = time-dependent effect
[8] = Drug metabolism in 4 days of sandwich-cultured human hepatocytes assessed as parent compound level at 1 uM after 24 hrs by radio-chromatogram analysis; format: ADME, cell-based, Hepatocyte; conditions: read-out: Drug metabolism
[9] = Drug metabolism in 4 days of sandwich-cultured Sprague-Dawley rat hepatocytes assessed as parent compound level at 1 uM by radio-chromatogram analysis; format: ADME, cell-based, Hepatocyte; conditions: 96 h, TDE = time-dependent effect
[10] = Drug metabolism in 4 days of sandwich-cultured Sprague-Dawley rat hepatocytes assessed as parent compound level at 1 uM after 24 hrs by radio-chromatogram analysis; format: ADME, cell-based, Hepatocyte; conditions: read-out: Drug metabolism
[11] = Drug metabolism in 4 days of sandwich-cultured Sprague-Dawley rat hepatocytes treated with at 1 uM of paroxetine by radio-chromatogram analysis; format: ADME, cell-based, Hepatocyte; conditions: 96 h, TDE = time-dependent effect
[12] = Drug metabolism in Sprague-Dawley rat hepatocytes treated with at 1 uM of paroxetine by radio-chromatogram analysis; format: ADME, cell-based, Hepatocyte; conditions: TDE = time-dependent effect
[13] = Drug uptake in rat liver […] assessed as BCRP-mediated drug transport at 0.5 uM up to 2 mins by liquid scintillation counting in presence of ATP; format: ADME, subcellular
[14] = Drug metabolism in 4 days of sandwich-cultured human hepatocytes treated with at 1 uM of paroxetine after 24 hrs by radio-chromatogram analysis; format: ADME, cell-based, Hepatocyte; conditions: 96 h
[15] = Drug metabolism in human hepatocytes treated with at 1 uM of paroxetine after 3 hrs by radio-chromatogram analysis; format: ADME, cell-based, Hepatocyte
[16] = Drug metabolism in 4 days of sandwich-cultured human hepatocytes assessed as biliary excretion index treated with at 1 uM of paroxetine after 0.025 to 24 hrs by radio-chromatogram analysis; format: ADME, tissue-based, Bile, Hepatocyte; conditions: 96 h
[17] = Drug metabolism in 4 days of sandwich-cultured Sprague-Dawley rat hepatocytes assessed as biliary excretion index treated with at 1 uM of paroxetine after 0.025 to 24 hrs by radio-chromatogram analysis; format: ADME, tissue-based, Bile, Hepatocyte; conditions: 96 h

Drug metabolism [1] | Drug metabolism [2] | remaining at 3 h, 1 µM [3] | Drug metabolism [4] | remaining at 3 h, 1 µM [5] | Drug metabolism [6] | Drug metabolism [7] | remaining at 96 h, 1 µM [8] | Drug metabolism [9] | remaining at 96 h, 1 µM [10] | SMILES | Drug metabolism [11] | Drug metabolism [12] | Drug uptake [13] | Drug metabolism [14] | Drug metabolism [15] | Drug metabolism [16] | Drug metabolism [17]
tde | tde | 29.7% | tde | 71.4% | tde | tde | 52.8% | tde | 36.6% | Fc1ccc([C@@H]2CCNC[C@H]2COc2ccc3c(c2)OCO3)cc1.O=C(O)/C=C\C(=O)O | – | – | – | – | – | – | –
– | – | – | – | – | – | – | – | – | – | COc1cc(OC[C@@H]2CNCC[C@H]2c2ccc(F)cc2)ccc1O[C@@H]1O[C@H](C(=O)O)[C@@H](O)[C@H](O)[C@H]1O | tde | tde | Active | metabolite_detected | metabolite_detected | metabolite_detected | metabolite_detected
– | – | – | – | – | – | – | – | – | – | COc1cc(OC[C@@H]2CNCC[C@H]2c2ccc(F)cc2)ccc1OS(=O)(=O)O | tde | tde | Not Active | metabolite_detected | metabolite_detected | metabolite_detected | metabolite_detected
